Test results: US20170107212A1, “NOVEL COMPOUNDS” (Bayer Pharma Aktiengesellschaft, priority 2014, published 2017)

Assays:
[1] = tested on: Wnt3A-stimulated R-catenin stabilization; conditions: according to WO 2011/035321 (A1); cited from earlier work
Frizzled1 = conditions: according to WO 2011/035321 (A1); cited from earlier work
Dishevelled-2 protein = conditions: according to WO 2011/035321 (A1); cited from earlier work
[2] = tested on: LEF/TCF reporter activity; conditions: Wnt3A-stimulated; according to WO 2011/035321 (A1); cited from earlier work
HCT116 FOPFlash = assay: Control reporter assay, HCT116 FOP control vector (non-functional TCF elements), luciferase expression; assay type: cell-based; conditions: HCT116 FOP control reporter cells, 36 hours incubation, dilution series 50 μM to 15 nM
Procedure, shortened: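 Stable HCT116 cells carrying FOP vector (randomized non-functional TCF sites) plus pcDNA3, run in parallel with TOP line; compounds 50 μM to 15 nM (3.16-fold steps) added in CAFTY buffer pH 7.4 with 2 mM Ca2+, 0.01% BSA. Incubated 36 h at 37 °C, 5% CO2; luciferase luminescence read.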

[3] = tested on: constitutive active colorectal cancer cell (CRC) Wnt pathway, HCT116 TOPFlash; assay: Cellular reporter assay, HCT116 Super TopFlash (constitutive active Wnt pathway), luciferase expression; assay type: cell-based; conditions: HCT116 Super TopFlash reporter cells, 36 hours incubation, dilution series 50 μM to 15 nM
Procedure, shortened: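 HCT116 cells stably carrying Super TopFlash (β-catenin ΔS45, constitutive Wnt) run in parallel with FOP control line; compounds 50 μM to 15 nM (3.16-fold) in CAFTY buffer pH 7.4 with 2 mM Ca2+, 0.01% BSA, 36 h at 37 °C. Luciferase luminescence read as Wnt activity.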

Row | Compound | IC50 (HCT116 FOPFlash; Homo sapiens, HCT-116, 36 h) | IC50 ([3]; Homo sapiens, HCT-116, 36 h) | other results
1 | O=C(Nc1ccc([N+](=O)[O-])cc1Cl)c1cc(Cl)ccc1O [niclosamide] |  |  | Wnt3A-stimulated R-catenin stabilization [1]: inhibits; Frizzled1 internalization (endocytosis) (Frizzled1): promotes Frizzled1 internalization (endocytosis); Dishevelled-2 protein regulation (Dishevelled-2 protein): down regulates Dishevelled-2 protein; LEF/TCF reporter activity [2]: inhibits
2 | CN1CCN(CC(=O)Nc2cc(C(=O)Nc3nnc(-c4cccnc4)s3)ccc2OC(F)(F)F)CC1 [Example 21, 3-{[(4-methylpiperazin-1-yl)acetyl]amino}-N-[5-(pyridin-3-yl)-1,3,4-thiadiazol-2-yl]-4-(trifluoromethoxy)benzamide] |  |  | IC50 (HCT116 FOPFlash): ≥ 50 µM; IC50 [3]: 315 nM
3 | CC(C(=O)Nc1cc(C(=O)Nc2ccc(-c3cccnc3F)nc2)ccc1OC(F)(F)F)N1CCOCC1 (stereo not drawn) [Example 5, N-(2′-fluoro-2,3′-bipyridin-5-yl)-3-{[2-(morpholin-4-yl)propanoyl]amino}-4-(trifluoromethoxy)benzamide] | ≥ 50 µM | 16.5 nM | 
4 | CN1CCN(CC(=O)Nc2cc(C(=O)Nc3ccc(-c4cccnc4)cn3)ccc2OC(F)(F)F)CC1 [Example 11, N-(3,3′-bipyridin-6-yl)-3-{[(4-methylpiperazin-1-yl)acetyl]amino}-4-(trifluoromethoxy)benzamide] | ≥ 50 µM | 18.8 nM | 
5 | Cc1ncccc1-c1nnc(NC(=O)c2ccc(OC(F)(F)F)c(NC(=O)CN3CCOCC3)c2)s1 [Example 28, N-[5-(2-methylpyridin-3-yl)-1,3,4-thiadiazol-2-yl]-3-[(morpholin-4-ylacetyl)amino]-4-(trifluoromethoxy)benzamide] | ≥ 50 µM | 1140 nM | 
6 | Cc1ncc(-c2nnc(NC(=O)c3ccc(OC(F)(F)F)c(NC(=O)CN4CCOCC4)c3)s2)s1 [Example 100, N-[5-(2-methyl-1,3-thiazol-5-yl)-1,3,4-thiadiazol-2-yl]-3-[(morpholin-4-ylacetyl)amino]-4-(trifluoromethoxy)benzamide] | ≥ 50 µM | 41000 nM | 
7 | CC(C(=O)Nc1cc(C(=O)Nc2ccc(-c3ccc(F)nc3)nc2)ccc1OC(F)(F)F)N1CCOCC1 (stereo not drawn) [Example 23, N-(6′-fluoro-2,3′-bipyridin-5-yl)-3-{[2-(morpholin-4-yl)propanoyl]amino}-4-(trifluoromethoxy)benzamide] | ≥ 50 µM | 53.5 nM | 
8 | Cc1cncc(-c2nnc(NC(=O)c3ccc(OC(F)(F)F)c(NC(=O)CN4CCN(C)CC4)c3)s2)c1 [Example 39, 1-methyl-4-(2-{[5-{[5-(5-methylpyridin-3-yl)-1,3,4-thiadiazol-2-yl]carbamoyl}-2-(trifluoromethoxy)phenyl]amino}-2-oxoethyl)piperazin-1-ium hexafluorophosphate] |  |  | IC50 (HCT116 FOPFlash; Homo sapiens, HCT-116): ≥ 50 µM; IC50 ([3]; Homo sapiens, HCT-116): 85.8 nM
9 | O=C(CN1CCN(C2CC2)CC1)Nc1cc(C(=O)Nc2nnc(-c3cccnc3)s2)ccc1Cl [Example 86, 4-chloro-3-{[(4-cyclopropylpiperazin-1-yl)acetyl]amino}-N-[5-(pyridin-3-yl)-1,3,4-thiadiazol-2-yl]benzamide] | ≥ 50 µM | 44000 nM | 
10 | Cc1ccncc1-c1nnc(NC(=O)c2ccc(OCC(F)(F)F)c(NC(=O)CN3CCN(C)CC3)c2)s1 [Example 61, 3-{[(4-methylpiperazin-1-yl)acetyl]amino}-N-[5-(4-methylpyridin-3-yl)-1,3,4-thiadiazol-2-yl]-4-(2,2,2-trifluoroethoxy)benzamide] | ≥ 50 µM | 340 nM | 
11 | O=C(CN1CCOCC1)Nc1cc(C(=O)Nc2nnc(-c3cnccc3F)s2)ccc1OC(F)(F)F [Example 107, N-[5-(4-fluoropyridin-3-yl)-1,3,4-thiadiazol-2-yl]-3-[(morpholin-4-ylacetyl)amino]-4-(trifluoromethoxy)benzamide] | ≥ 50 µM | ≥ 50000 nM | 
12 | O=C(CN1CCOCC1)Nc1cc(C(=O)Nc2cnc(-c3cccnc3)s2)ccc1OC1CC1 [Example 76, 4-(cyclopropyloxy)-3-[(morpholin-4-ylacetyl)amino]-N-[2-(pyridin-3-yl)-1,3-thiazol-5-yl]benzamide] | ≥ 50 µM | 155 nM | 
13 | COc1ccc(NC(=O)c2ccc(-c3ccncc3)s2)cc1NC(=O)CN1CCOCC1 [Example 25, N-{4-methoxy-3-[(morpholin-4-ylacetyl)amino]phenyl}-5-(pyridin-4-yl)thiophene-2-carboxamide] | ≥ 50 µM | 4400 nM | 
14 | O=C(CN1CCOCC1)Nc1cc(C(=O)Nc2nnc(-c3ccccn3)s2)ccc1OC(F)(F)F [Example 80, 3-[{morpholin-4-ylacetyl)amino]-N-[5-(pyridin-2-yl)-1,3,4-thiadiazol-2-yl]-4-(trifluoromethoxy)benzamide] | ≥ 50 µM | 27500 nM | 
15 | CN1CCN(CC(=O)Nc2cc(C(=O)Nc3cnc(-c4cnc(N)cn4)cn3)ccc2OC(F)(F)F)CC1 [Example 59, N-(5′-amino-2,2′-bipyrazin-5-yl)-3-{[(4-methylpiperazin-1-yl)acetyl]amino}-4-(trifluoromethoxy)benzamide] | ≥ 50 µM | 4100 nM | 
16 | CN1CCN(CC(=O)Nc2cc(C(=O)Nc3nnc(-c4cncc(C(F)(F)F)c4)s3)ccc2OC(F)(F)F)CC1 [Example 57, 3-{[(4-methylpiperazin-1-yl)acetyl]amino}-4-(trifluoromethoxy)-N-{5-[5-(trifluoromethyl)pyridin-3-yl]-1,3,4-thiadiazol-2-yl}benzamide] | ≥ 50 µM | 240 nM | 
17 | O=C(CN1CCOCC1)Nc1cc(C(=O)Nc2nnc(-c3cncnc3)s2)ccc1OC(F)(F)F [Example 69, 3-[(morpholin-4-ylacetyl)amino]-N-[5-(pyrimidin-5-yl)-1,3,4-thiadiazol-2-yl]-4-(trifluoromethoxy)benzamide] | ≥ 50 µM | 2450 nM | 
18 | Cc1cncc(-c2nnc(NC(=O)c3ccc(OC(F)(F)F)c(NC(=O)CN4CCN(C)CC4)c3)s2)n1 [Example 102, 3-{[(4-methylpiperazin-1-yl)acetyl]amino}-N-[5-(6-methylpyrazin-2-yl)-1,3,4-thiadiazol-2-yl]-4-(trifluoromethoxy)benzamide] | ≥ 50 µM | 180 nM | 
19 | Cc1ccnc(-c2nnc(NC(=O)c3ccc(OC(F)(F)F)c(NC(=O)CN4CCN(C)CC4)c3)s2)c1 [Example 62, 3-{[(4-methylpiperazin-1-yl)acetyl]amino}-N-[5-(4-methylpyridin-2-yl)-1,3,4-thiadiazol-2-yl]-4-(trifluoromethoxy)benzamide] | 8.55 µM | 1010 nM | 
20 | O=C(Nc1nnc(-c2cncnc2)s1)c1ccc(OC(F)(F)F)c(NC(=O)C2(N3CCOCC3)CC2)c1 [Example 30, 3-({[1-(morpholin-4-yl)cyclopropyl]carbonyl}amino)-N-[5-(pyrimidin-5-yl)-1,3,4-thiadiazol-2-yl]-4-(trifluoromethoxy)benzamide] | ≥ 50 µM | 535 nM | 
21 | CC(C(=O)Nc1cc(C(=O)Nc2ccc(-c3ccc(N)nc3)nc2)ccc1OC(F)(F)F)N1CCOCC1 (stereo not drawn) [Example 3, N-(6′-amino-2,3′-bipyridin-5-yl)-3-{[2-(morpholin-4-yl)propanoyl]amino}-4-(trifluoromethoxy)benzamide] | ≥ 50 µM | 20.9 nM | 
22 | COc1ccc(C(=O)Nc2nnc(-c3cnccc3C)s2)cc1NC(=O)CN1CCOCC1 [Example 106, 4-methoxy-N-[5-(4-methylpyridin-3-yl)-1,3,4-thiadiazol-2-yl]-3-[(morpholin-4-ylacetyl)amino]benzamide] | ≥ 50 µM | ≥ 50000 nM | 
23 | O=C(CN1CCOCC1)Nc1cc(C(=O)Nc2ccc(-c3cccnc3)cn2)ccc1OC1CC1 [Example 118, N-(3,3′-bipyridin-6-yl)-4-(cyclopropyloxy)-3-[(morpholin-4-ylacetyl)amino]benzamide] | ≥ 50 µM | ≥ 50000 nM | 
